According to patent US12564631B2, “Phytosphingosine derivatives as adjuvants in immune stimulation” (Helmholtz-Zentrum für Infektionsforschung GmbH, priority 2020, dated 2026):
“Also recorded” adds a separate entry of the source.

Tests used:
CD4+ T cells = experiment: CFSE proliferation assay of CD4+ T cells after interaction with Ova/adjuvant-matured bone marrow derived DCs (APC); assay type: cell-based, mice; details: for stimulating effect of CD4+ T cells versus controls with only antigen Ova: CFSE loss up to 7 days, DCs activated with Ova + 10 μg compound, FIG. 4A/4B; for capacity to induce antigen specific CD4+ T cell proliferation: DCs restimulated with Ovalbumin + 10 μg compound for 24 h, interaction with APC for 5 days
Excerpt: FIG. 3B: Cell proliferation tracked by CFSE dilution of CD4+ T cells after interaction with matured Antigen Presenting Cells (APC). With every cell division, the CFSE signal strength is approximately halved. The shown cell numbers indicate the ratio of proliferated live CD4+ T cells.
(§1) FIG. 4: Effect after treatment with IPB 0964-1917—Cell proliferation tracked by CFSE loss of T cells after interaction with matured Antigen Presenting Cells (APC). With every cell division, the CFSE signal strength is reduced. The shown cell numbers indicate the ratio of proliferating T and B cells (7 steps are shown). (A) Numbers of CD4+ T cells are shown at different proliferation steps up to 7 days measuring the loss of CFSE. Naïve cells were treated with one of IPB1901-1912 together with DCs activated with Ova prior to the CFSE assay. (B) Numbers of CD4+ T cells are shown at different proliferation steps up to 7 days measuring the loss of CFSE. Naïve cells were treated with one of IPB2033-2044 together with DCs activated with Ova prior to the CFSE assay. (C) Numbers of CD8+ T cells are shown at different proliferation steps up to 7 days measuring the loss of CFSE. Naïve cells were treated with one of IPB1901-1912 together with DCs activated with Ova prior to the CFSE assay. (D) Numbers of CD8+ T cells are shown at different proliferation steps up to 7 days measuring the loss of CFSE. Naïve cells were treated with one of IPB2033-2044 together with DCs activated with Ova prior to the CFSE assay.
(§2) In order to assess the properties of the inventive compounds in antigen-specific T and B cell stimulation, the compounds were administered to cultured bone marrow cells in a CFSE assay.
(§3) Briefly, femurs and Tibiae of female 4-12 weeks old C57Bl6 (or BALB/c for TCR HA) were removed and purified from the surrounding muscle tissue (Kleenex tissues). Intact Bones were left in 70% ethanol for 2-5 min for disinfection. Both ends were cut with scissors and the bone marrow were flushed with PBS using a syringe with a 0.45 mm diameter needle, clusters were disintegrated by vigorous pipetting.
(§4) In order to obtain activated antigen presenting dendritic cells (DCs), bone marrow cells were cultured with GM-CSF. On Day 0, cells were seeded in a concentration of 2×10^6 cells per 100 mm dish (bacteriological petri dishes) in 10 ml RPMI-10 (100 U Pen/100 μg Strept/2 mM Glutamin/50 μm ß-Mercaptoethanol/10% FCS heat-inactivated and filtered 0.22 μm Filter) containing 200 Units GM-CSF. On Day 3 another 10 ml RPMI-10 containing 200 U GM-CSF were added to the plates. On Day 6 half of the culture supernatants (10 ml) were collected, centrifuged and the cell pellet resuspended in 10 ml fresh RPMI-10/200 U GM-CSF and given back into the original plates.
(§5) Subsequently, the DCs were incubated with Ovalbumin (as antigen) alone or co-administered with known adjuvants, such as α-GalCerMPEG, aßGalCerMPEG or TLR2/6 ligand (BPPcysMPEG), or the novel phytosphingosine derivatives of the present invention. The activation of DCs was controlled by FACS analysis of different CD markers, such as CD40, CD54, CD80, CD86, CD83, MHCI and MHCII.
(§6) The effect of the compounds of the present invention was then ascertained via co-incubation of naïve T or B cells, obtained from mice (OTI or OTII mice) with previous exposure to the Ova antigen, with DCs that had been treated with the compounds of the invention.
(§7) Naïve T cells were derived from LN/spleen from OTI or OTII mice. The MagniSort™ Mouse CD4 naïve or CD8 naïve T cell Enrichment Kit is designed for the magnetic separation of CD4 or CD8 naïve T cells by negative selection from mouse spleens or lymph nodes utilizing a biotinylated antibody cocktail and streptavidin-coated magnetic beads. Undesired cells are bound by antibody (Anti-Mouse CD8 or CD4/CD11b CD19/CD24/CD44/CD45R(B220)/CD49b(Integrin α 2)/Ly-6G (Gr-1)/γδ TCR/TER-119) and then magnetic beads that, when placed in a magnetic field, leave CD4 or CD8 naïve T cells untouched and free in solution. […]

CD8+ T cells = experiment: CFSE proliferation assay of CD8+ T cells after interaction with Ova/adjuvant-matured bone marrow derived DCs (APC); assay type: cell-based, mice; details: for stimulating effect of CD8+ T cells versus controls with only antigen Ova: CFSE loss up to 7 days, DCs activated with Ova + 10 μg compound, FIG. 4C/4D; for effect to induce antigen specific CD8+ T cell proliferation: DCs restimulated with Ovalbumin + 10 μg compound for 24 h, interaction with APC for 5 days, FIG. 3C
Excerpt: FIG. 3C: Cell proliferation tracked by CFSE dilution of CD8+ T cells after interaction with matured Antigen Presenting Cells (APC). With every cell division, the CFSE signal strength is approximately halved. The shown cell numbers indicate the ratio of proliferated live CD8+ T cells
as §1, §2, §3, §4, §5, §6, §7

splenocytes = experiment: Unspecific proliferation assay of splenocytes ([3H]thymidine incorporation); assay type: cell-based, mice; details: for Stimulation index (SI): splenocytes restimulated 96 h with 1, 10 and 20 μg/ml compound, ratio of [3H]-thymidine uptake of stimulated versus non-stimulated samples, FIG. 2E/2F; for induction of unspecific proliferation in splenocytes: summary statement
Description: FIG. 2: Analysis of unspecific proliferative responses of murine cells stimulated without or with enhanced concentrations of the Phytosphingosine-compounds. Splenocytes from mice were re-stimulated for 96 h with different concentrations of adjuvant (1, 10 and 20 μg/ml). The results are presented by are expressed (A-C) as counts per minute (cpm) and (D-F) stimulation index (SI) being the ratio of [^3H]-thymidine uptake of stimulated versus non-stimulated samples. (A) and (D) show data for α-GalCer controls, (B) and (E) show data for IPB1901-1910, and (C) and (F) show data for IPB1911-1917.
In order to assess the properties of the inventive compounds in antigen-unspecific immune response stimulation the compounds were administered to splenocytes in an established proliferation assay.
For the proliferation assay, splenocytes (5×10^6 cells/ml) are seeded at 100 μl per well in a U-bottomed 96-well microtiter plate (Sarstedt Inc., Newton, N.C.) and cultured in quadruplicates 4 days in the presence of enhanced concentrations of adjuvant (1, 10 and 20 μg/ml)), 5 μg/ml of Concanavalin A (max); or medium alone. Eighteen hours before harvesting, 1 μCi of [3H]thymidine (Amersham International, Freiburg, Germany) is added to each well. Cells are harvested on paper filters (Filtermat A; Wallac, Freiburg, Germany) using a cell harvester (Inotech, Wohlen, Switzerland) and the incorporation of [3H] thymidine into the DNA of proliferating cells is determined using a scintillation counter (Wallac 1450, Micro-Trilux).

CD19+ B cells = experiment: CFSE proliferation assay of CD19+ B cells after interaction with Ova/adjuvant-matured bone marrow derived DCs (APC); assay type: cell-based, mice; details: FIG. 3A; for toxicity against B cells: effect not comparable to adjuvant controls; for capacity to induce antigen specific CD19+ B cell proliferation: DCs restimulated with Ovalbumin + 10 μg compound for 24 h, interaction with APC for 5 days
Description: FIG. 3A: Cell proliferation tracked by CFSE dilution of B cells after interaction with matured Antigen Presenting Cells (APC). With every cell division, the CFSE signal strength is approximately halved. The observed cell numbers indicate the ratio of proliferating viable CD19+ B cells.
as §2, §3, §4, §5, §6
CFSE staining of the CD4+ or CD8+ naïve T cells is then carried out according to standard procedures. Subsequently, 2-5×10^4 DCs (as mature antigen presenting cells APCs) are incubated with 4×10^5 CFSE+ T cells (OTI or OTII) per well (ratio DC/T cells is […]). A CFSE proliferation assay is then conducted, using on Day +5 or on Day +7 a FACS analysis (CFSE/LD/CD4/CD8/CD19/Thy1.1), providing a cell count for the desired cell type based on CFSE. With every cell division, the CFSE signal strength is approximately halved. The cells marked with CFSE can therefore be used to determine the proliferation of CD19+ B cells, CD4+ or CD8+ T cells in response to treatment with activated DCs, that were treated with or without the compounds of the invention.
As is shown in FIG. 3A, cell proliferation of B cells is tracked by CFSE dilution after interaction with APCs. With every cell division, the CFSE signal strength is approximately halved. Therefore, the compounds of the invention show an effect on inducing antigen specific CD19+ cell proliferation.
On day −1, mature DCs were restimulated with Ovalbumin (antigen) co-administered with 10 μg of the different novel phytosphingosine derivatives (0964-1917) or with positive controls (α-GalCerMPEG, aßGalCerMPEG, CDA or BPPcysPEGdef) for 24 h.

[1] = system: Th1-type / Th2-type response; details: literature cited in background; cited from earlier work

SMILES	stimulating effect of CD4+ T cells versus controls with only antigen Ova (CD4+ T cells)	stimulating effect of CD8+ T cells versus controls with only antigen Ova (CD8+ T cells)	Stimulation index (SI) (splenocytes)	induction of unspecific proliferation in splenocytes (splenocytes)	toxicity against B cells (CD19+ B cells)	capacity to induce antigen specific CD4+ T cell proliferation (CD4+ T cells; FIG. 3B)	effect to induce antigen specific CD8+ T cell proliferation (CD8+ T cells)	further results
CCCCCCCCCCCCCC[C@@H](O)[C@@H](O)[C@H](CO[C@H]1OC(CO)[C@H](O)C(O)C1O)N(CC(=O)NCCCCCCCCCCCC)C(=O)CCCCCCCCCCCCC (stereo partly drawn) [IPB 1901]	stimulating effect of CD4+ T cells beyond controls	stimulating effect of CD8+ T cells beyond controls	4	beneficial induction of unspecific proliferation	may show some toxicity against B cells			
CCCCCCCCCCCCCC[C@@H](O)[C@@H](O)[C@H](CO[C@H]1OC(CO)[C@H](O)C(O)C1O)N(CC(=O)NCc1ccccc1)C(=O)CCCCCCC (stereo partly drawn) [IPB 1902]	stimulating effect of CD4+ T cells beyond controls	stimulating effect of CD8+ T cells beyond controls		beneficial induction of unspecific proliferation	may show some toxicity against B cells			toxicity against CD4+ T cells (CD4+ T cells; FIG. 3B, no improved effect over adjuvant controls): may show some toxicity against CD4+ T cells
CCCCCCCCCCCCCCCCCC(=O)N(CC(=O)NCCC(=O)OC(C)(C)C)[C@@H](CO[C@H]1OC(CO)[C@H](O)C(O)C1O)[C@H](O)[C@H](O)CCCCCCCCCCCCCC (stereo partly drawn) [IPB 1909]						high capacity; also recorded: beneficial capacity	strong effect; also recorded: beneficial effect	capacity to induce antigen specific CD19+ B cell proliferation (CD19+ B cells): particularly high capacity; also recorded: beneficial capacity
CCCCCCCCCCCCCCCCCCCCCCCC(=O)N[C@@H](CO[C@H]1O[C@H](CO)[C@H](O)[C@H](O)[C@H]1O)[C@H](O)[C@H](O)CCCCC [OCH]								type of response elicited (Th1 / Th2) [1]: elicit a Th2-type response
CCCCCCCCCCCCCCCCCCCCCCCC(=O)N(CC(=O)NCCC(=O)O)[C@@H](CO[C@H]1OC(CO)[C@H](O)C(O)C1O)[C@H](O)[C@H](O)CCCCCCCCCCCCCC (stereo partly drawn) [IPB 1910]			ca. 2	beneficial induction of unspecific proliferation		high capacity; also recorded: beneficial capacity	strong effect; also recorded: beneficial effect	
CCCCCCCCCCCCCC[C@@H](O)[C@@H](O)[C@H](CO[C@H]1O[C@H](CO)[C@H](O)[C@H](O)[C@H]1O)NC(=O)CCCCCCCCCCc1ccc(F)cc1 [7DW8-5]								type of response elicited (Th1 / Th2) [1]: elicit a Th1 response
CCCCCCCCCCCCCCCCCCCCCCCC(=O)N(CC(=O)NCC(OC)OC)[C@@H](CO[C@H]1OC(CO)[C@H](O)C(O)C1O)[C@H](O)[C@H](O)CCCCCCCCCCCCCC (stereo partly drawn) [IPB 1911]				beneficial induction of unspecific proliferation		high capacity; also recorded: beneficial capacity	strong effect; also recorded: beneficial effect	
CCCCCCCCCCCCCCNC(=O)CN(C(=O)[C@@H](Cc1ccccc1)NC(C)=O)[C@@H](CO[C@H]1OC(CO)[C@H](O)C(O)C1O)[C@H](O)[C@H](O)CCCCCCCCCCCCCC (stereo partly drawn) [IPB 1904]				beneficial induction of unspecific proliferation				capacity to induce antigen specific CD19+ B cell proliferation (CD19+ B cells): particularly high capacity; also recorded: beneficial capacity
CCCCCCCCCCCCCC[C@@H](O)[C@@H](O)[C@H](CO[C@H]1OC(CO)[C@H](O)C(O)C1O)N(CC(=O)NC1CCCCC1)C(=O)CCCCCCCCCCC (stereo partly drawn) [IPB 1903]	stimulating effect of CD4+ T cells beyond controls	stimulating effect of CD8+ T cells beyond controls	> 10	beneficial induction of unspecific proliferation	may show some toxicity against B cells	high capacity; also recorded: beneficial capacity		
